pIC50: −log10 of the molar value. Positions of bridges follow the written chain, without caps; N, C: chain ends. Chains are numbered I, II in the order given. No end group written: not given here.
Tested on: NPY-induced increase of perfusion pressure in isolated perfused rat kidney
Experiment: Isolated perfused rat kidney preparation
Conditions: antagonist infused during 5 min, read-out: IC50 for the inhibition of the NPY-induced increase of perfusion pressure
Protocol: Male CD rats (200-400 g) are anaesthetised with a mixture of Acepromazine (2.8 mg/kg) and Kenamine (112 mg/kg) injected i.p. The rat's abdomen is opened through the midline. The renal arteries and descending aorta are cleaned and, with minimal disruption of blood flow, one kidney is cannulated through the proximal renal artery using a stainless steel 20G blunt-tipped needle attached to Tygon tubing and a peristaltic pump. As soon as the first ligature is complete and perfusion of the kidney starts (10 ml/min) and the kidney is removed from the animal and placed in a constant temperature perfusion chamber. The perfusion pressure is followed by an on-line Statham pressure transducer and changes recorded in a Grass Polygraph.
Administration of Drugs: Neuropeptide Y and other agonists are administered by a single bolus injection (0.1 ml) through an injection port situated about 6 inches from the tip of the needle (approximately 0.3 ml, total volume). Antagonists are infused during 5 min (0.15 ml/min) into the kidney through an injection port situtated before the perfusion pump to allow for good mixing and constant concentration (dilution of 0.15 ml into 10 ml). […]
Results: Using the above experimental procedure we have determined the IC50 for the inhibition of the NPY-induced increase of perfusion pressure for: […]

Row | pIC50 | Substance
1 | 8.60 | IleCysProCysTyrArgLeuArgTyr-NH2,Cyclic (2,2'),(4,4')-Disulfide Dimer (chain 1 ICPCYRLRY-NH2; chain 2 ICPCYRLRY-NH2; disulfide I:2-II:2, I:4-II:4; N-terminus assumed; SMILES CC[C@H](C)[C@H](N)C(=O)N[C@H]1CSSC[C@H](NC(=O)[C@@H](N)[C@@H](C)CC)C(=O)N2CCC[C@H]2C(=O)N[C@H](C(=O)N[C@@H](Cc2ccc(O)cc2)C(=O)N[C@@H](CCCNC(=N)N)C(=O)N[C@@H](CC(C)C)C(=O)N[C@@H](CCCNC(=N)N)C(=O)N[C@@H](Cc2ccc(O)cc2)C(N)=O)CSSC[C@@H](C(=O)N[C@@H](Cc2ccc(O)cc2)C(=O)N[C@@H](CCCNC(=N)N)C(=O)N[C@@H](CC(C)C)C(=O)N[C@@H](CCCNC(=N)N)C(=O)N[C@@H](Cc2ccc(O)cc2)C(N)=O)NC(=O)[C@@H]2CCCN2C1=O)
2 | 8.60 | IleCysProCysTyrArgLeuArgTyr-NH2,Cyclic (2,4'),(4,2')-Disulfide Dimer (chain 1 ICPCYRLRY-NH2; chain 2 ICPCYRLRY-NH2; disulfide (positions not given here); not fully specified (bridges))

Reference: patent US5670482A, “Neuropeptide Y antagonists” (Glaxo Wellcome Inc., priority 1992, dated 1997)
